# Test results as given in patent publication US20220249525A1, “Fatty Acid Compounds for Prevention and Treatment of Neurodegenerative Disorders” (T OMEGA AS, priority 2019, published 2022).
# Counter-ions that a name gives are not always drawn.
# What was measured:
# HuH-7 cells [1] = test: WST-1 cell viability assay in HuH-7 cells; type: cell-based; conditions: 2 days
# Procedure: (§1) The fatty acids (FAs) TTA, tr-TTA, N-TTA, tr-N-TTA and (PA) were complexed with FBS following the same procedure, differing only in final stock concentration, due to variation in solubility. Approximately 0.07 g of FA was weighed in a 10 ml sterile serum tube (BD Vacutainer®, catalog no. 368430) and dissolved in sterile filtrated 0.1 M sodium hydroxide (NaOH) of a volume giving 25 mM FA, controls without FA were made, containing only NaOH and FBS. A syringe (Sterican®, catalog no. 4657577) was pierced through the rubber cap of the serum tube, and the tube was placed in an 80° C. water bath until the FAs were dissolved. Each FA-solution was then diluted in inactivated FBS to stock concentration 1 mM (N-TTA, tr-N-TTA), and 2 mM by adding the FA to a volume of 100% FBS after heating the FBS to 45° C. in a water bath. The transfer of FA to FBS had to be executed controlled and swiftly to avoid the formation of precipitates. If any precipitates in the solution were visible, the FA and a new volume of FBS were reheated, and the procedure performed again. Following successful complexation, the stock solutions were stored at −20° C. in 1 ml aliquots (CryoPure tube, Sarstedt AG & Co, Nümbrecht, Germany).
# (§2) The WST-1 cell proliferation assay was performed using the kit from Roche (table 4.2.) and its accompanying procedure (version 16, February 2011) (134). The number of cells seeded to each well in the 96-well plates (Corning Inc., catalog no. 353072) varied depending on the treatment time and cell type (table 3.).
# (§3) Cell suspension and medium were then transferred to each well in a volume of 100 μl in total. Subsequently, the plates were incubated for 24 hours to make the cells settle. The next day, 100 μl with FA complexed with FBS or diluted in DMSO was added to row A or B in the 96-well plate to give a defined concentration. The solution was then mixed with a pipette, and 100 μl of the medium with FA was transferred to the next well in the same column, mixed by pipetting up and down at least five times before 100 μl was transferred again to the next well in the column. This procedure was repeated until the second last, or last well in each column was reached, making a series of two-fold dilution of the FAs in the cell medium. Two parallels were performed for every treatment per run. After the addition of FAs, the plates were incubated for 24-96 hours depending on the length of the treatment.
# (§4) Following the FA-treatment, the cells were studied under a microscope to ensure that visual observations matched the measured absorbance and cell activity in the assay. Subsequently, 10 μl WST-1 reagent was added to each well, and the plates were incubated for 3 hours. Due to high activity in the HuH-7 cell line, the WST-1 reagent was diluted 1:1 with PBS. Before the measurement of absorbance, the plates were placed on a shaker for 1 minute ensuring thoroughly mixing of the wells. The plates were then put straight into the spectrophotometer (SpectraMax Plus 384 Microplate Reader, Molecular Devices Corporation, San Jose, Calif., USA) to perform the measurements. The accompanying software was used (SoftMax Pro, Molecular Devices Corporation, San Jose, Calif., USA) to obtain the results. The absorbance of the samples was measured at 450 nm, and the reference wavelength was set to 650 nm. For each well, the measured absorption at 650 nm was subtracted from the absorption at 450 nm. The measured absorbance for the treated cells was then compared to the controls (blank) containing only cells and growth medium.
# SH-SY5Y cells [2] = test: Gene expression (qPCR) in SH-SY5Y cells treated with fatty acids; type: cell-based
# Procedure: (§5) Cells from both cell lines were obtained and counted as previously mentioned. After cell counting, the cells were seeded to 6-well plates (Corning Inc., catalog no. 353046) with a density dependent on total treatment time and cell line. The cells were seeded in 3-4 ml medium and placed in the incubator for approximately 24 hours for the cells to settle. Following the 24 hours, the FAs were thawed in room temperature, the cell medium was aspirated off, and a new, exact volume was added to each well, depending on the final concentration of FA or control. Before the addition of FAs, the FA-solutions were mixed by pipetting up and down several times. The FAs were then added with an exact volume to the wells giving a total volume of 3 ml or 4 ml depending on treatment time, yielding the target concentration of FA in well. After the addition of FA to one well, the solution was mixed by carefully rotating the 6-well plate. The same procedure was followed for all the wells, differing only in FA or control added, and the ratio of medium and FA depending on treatment dose. During cell treatment, the plates were incubated under the same conditions as previously mentioned. PBS was placed between the wells to reduce liquid-loss due to evaporation. After treatment and incubation for 24-96 hours, the procedure of RNA purification was followed.
# (§6) Purification of total RNA from treated HuH-7- and SH-SY5Y cells was done following the protocol “Purification of Total RNA from Animal Cells using Spin Technology” described in the RNeasy Mini Handbook (fourth edition, June 2012) with some modifications. The RNeasy Mini Kit was used.
# (§7) Frozen RNA samples were thawed on ice or used directly after the RNA purification protocols. All samples from the cell lines were diluted with nuclease-free water to 50 ng/μl, and all samples from brain tissue were diluted to 200 ng/μl prior to cDNA synthesis. UHRR and UMRR were initially at 50 ng/μ1 (table 4.3.). The reactants (table 4.6.) used in the RT-mix were thawed on ice and mixed following the protocol “High Capacity cDNA Reverse Transcription Kits” (Applied Biosystems, June 2010) (153). From the master mix containing the total volume of the mixed reactants, 10 μl was added to each sample tube placed on ice already containing 10 μl of the diluted RNA. The samples with a total volume of 20 μl were mixed by pipetting up and down several times. In addition, samples without reverse transcriptase (−RT) were made, using nuclease-free water to replace the RT volume. The tubes were placed on ice until they were loaded to the GeneAmp* PCR system 2700 (Applied Biosystems, Foster City, Calif., USA) and the program described in table 4.7. was used. After the procedure, all samples were diluted to 10 ng/μl by the addition of nuclease-free water and placed for storage at 4° C. until further use.
# The mix for the samples (and standard curves) was made using TaqMan Gene Expression Master Mix (table 4.8.), probes specific for the genes in question, and nuclease-free water. −RT and NTC samples were always used in the experiments. […] The prepared samples were placed in the PCR cycler (ABI PRISM 7900HT Sequence Detection System, Applied Biosystems) for quantification, using the 9600 Emulation Thermal Cycler Protocol (table 4.9.) in the software SDS 2.3 (Applied Biosystems, Foster City, Calif., USA).
# (§8) When performing the qPCR reactions, all samples were analyzed in triplicates, and the mean value was used in further analysis. […]
# HuH-7 cells [3] = test: Gene expression (qPCR) in HuH-7 cells treated with fatty acids; type: cell-based
# Procedure: as §5, §6, §7
# The mix for the samples (and standard curves) was made using TaqMan Gene Expression Master Mix (table 4.8.), probes specific for the genes in question, and nuclease-free water. −RT and NTC samples were always used in the experiments. The master mix for each gene was made according to table 4.8. and added to tubes together with the cDNA. The tubes were vortexed and centrifuged briefly before the samples were added to a 384-well plate (Sarstedt AG & CO, catalog no. 72.1984.202) with the use of a pipette. For every sample, three parallels of 9 μl were used. After the addition of all the samples to the plate, a plastic cover (Sarsted AG & CO, catalog no. 95.1994) was used to seal the plate before centrifuging it for 2 minutes at 700 g. The prepared samples were placed in the PCR cycler (ABI PRISM 7900HT Sequence Detection System, Applied Biosystems) for quantification, using the 9600 Emulation Thermal Cycler Protocol (table 4.9.) in the software SDS 2.3 (Applied Biosystems, Foster City, Calif., USA).
# as §8
# SH-SY5Y cells [4] = test: WST-1 cell viability assay in SH-SY5Y cells; type: cell-based; conditions: 4 days
# Procedure: as §1, §2, §3
# as §4, with “The accompanying software was used (SoftMax Pro, Molecular Devices Corporation, San Jose, Calif., USA) to obtain the results.” left out
# [5] = tested on: MOLM-13 human acute leukemia cells; test: WST-1 viability of MOLM-13 cells; type: cell-based; conditions: for Abs450 nm (WST-1 viability): complexed to BSA
# Procedure: MOLM-13 suspension cells were diluted and added to 96-well plates (15.000 cells/well).
# The modified fatty acids TTA, tr-TTA, TDG (TGH) and tr-TDG (tr-TGH) were complexed to bovine serum albumin (BSA), and 10-fold dilutions of the fatty acids or BSA control were added to the wells in duplicate. Two plates were run in parallel, and WST-1 was added to the cells after 48 (plate 1) and 72 hours (plate 2). Absorbance at 450 nm measured to assess viability of the cells.
# [6] = 4 week high-fat diet study, body weight, adipose tissue, plasma glucose and cholesterol; type: in vivo, C57BL/6 mice; conditions: mice, N-TTA 750 mg/kg or triple-N-TTA 350 mg/kg body weight, 4 weeks
# Procedure: This animal study was conducted according to the Guidelines for the Care and Use of Experimental Animals, and the protocol was approved by the Norwegian Food Authorities. 7 to 8-weeks old male C57BL/6 mice, were obtained from Janvier Labs. After one week of acclimatization, they were divided into 3 groups of 7 animals. One group was fed a control high-fat (25 w/v) diet while the two remaining groups were fed a high-fat diet supplemented with either N-TTA (750 mg/kg body weight) or triple-N-TTA (350 mg/kg body weight). After 4 weeks of feeding, the mice were anaesthetized with Isofluorane (Forane, Abbot Laboratories Ltd, Illinois, USA) inhalation under fasting conditions, and blood and liver samples were collected. […]
# Glucose and lipids in plasma was measured on the Hitachi 917 system (Roche Diagnostics, GmbH, Mannheim, Germany) using kits from Roche Diagnostics or DiaSys.
# [7] = 125 μM complexed with FBS, 24 hours
# [8] = 25 μM dissolved in DMSO, 4 days
structure (smiles),measurement,setting,value
CCCCCCCCCCCCCCCC(=O)O [PA],WST-1 activity compared to untreated cells,"HuH-7 cells [1]; 62.5 μM, complexed with FBS",~150%
same,relative gene expression of CPT-2 vs control,SH-SY5Y cells [2]; [7],No change
same,relative gene expression of CYCS vs control,SH-SY5Y cells [2]; [7],No change
same,relative gene expression of TFAM vs control,SH-SY5Y cells [2]; [7],No change
same,relative gene expression of UCP3 vs control,SH-SY5Y cells [2]; [7],No change
same,CYCS gene expression vs FBS-control,"SH-SY5Y cells [2]; additional treatments, 4 days, reference 18 S",small decrease
same,relative expression of CPT-2 compared to control,HuH-7 cells [3]; [8],0.65
same,relative expression of UCP3 compared to untreated cells,HuH-7 cells [3]; [8],approximately 0.5
same,increase in CPT-2 expression relative to control,"HuH-7 cells [3]; 125 μM complexed with FBS, 1 day",1.5 fold
same,increase in CPT-2 expression relative to control,"HuH-7 cells [3]; 125 μM complexed with FBS, 2 days",did not result in increased expression
same,increase in CPT-2 expression relative to control,"HuH-7 cells [3]; 125 μM complexed with FBS, 4 days",did not result in increased expression
same,increase in relative expression of UCP3,"HuH-7 cells [3]; 125 μM complexed with FBS, all treatment periods (1, 2, 4 days)",did not induce any changes
same,WST-1 activity,SH-SY5Y cells [4]; 500 μM,the same as the control
same,WST-1 activity,SH-SY5Y cells [4]; concentrations up to 250 μM,stimulated activity
"CC#CCCCCCCCCCCCNCC(=O)O [tr-N-TTA, Tetradec-12-yn-1-ylglycine hydrochloride]",WST-1 activity compared to untreated cells,"HuH-7 cells [1]; 16 μM, complexed with FBS",109%
same,WST-1 activity compared to no treatment,HuH-7 cells [1]; 500 μM,~90%
same,WST-1 activity compared to untreated cells,HuH-7 cells [1]; all concentrations,around 100%
same,Abs450 nm (WST-1 viability),"[5]; 48 hours, 0.0625 mM",0.4964
same,Abs450 nm (WST-1 viability),"[5]; 48 hours, 0.125 mM",0.1452
same,Abs450 nm (WST-1 viability),"[5]; 48 hours, 0.25 mM",0.1679
same,Abs450 nm (WST-1 viability),"[5]; 48 hours, 0.5 mM",0.2177
same,Abs450 nm (WST-1 viability),"[5]; 48 hours, 1 mM",0.2833
same,Abs450 nm (WST-1 viability),"[5]; 48 hours, 2 mM",0.5009
same,Abs450 nm (WST-1 viability),"[5]; 72 hours, 0.03125 mM",0.3769
same,Abs450 nm (WST-1 viability),"[5]; 72 hours, 0.0625 mM",0.4452
same,Abs450 nm (WST-1 viability),"[5]; 72 hours, 0.125 mM",0.13
same,Abs450 nm (WST-1 viability),"[5]; 72 hours, 0.25 mM",0.1384
same,Abs450 nm (WST-1 viability),"[5]; 72 hours, 0.5 mM",0.1964
same,Abs450 nm (WST-1 viability),"[5]; 72 hours, 1 mM",0.366
same,Abs450 nm (WST-1 viability),"[5]; 72 hours, 2 mM",0.426
same,toxicity to leukemic cells,"[5]; MOLM-13, compared with TTA and tr-TTA",toxic to leukemic cells at a lower concentration than TTA and tr-TTA
same,LDL cholesterol (plasma),[6],reduced
same,body weight gain vs high-fat control diet,[6],significantly lower
same,cholesterol esters (plasma),[6],reduced
same,epididymal white adipose tissue depot,[6],reduced in size
same,free cholesterol (plasma),[6],reduced
same,perirenal white adipose tissue depot,[6],reduced in size
same,total cholesterol (plasma),[6],reduced
same,blood glucose vs high-fat control diet,[6]; fasting,significantly lower
same,WST-1 activity compared to untreated cells,SH-SY5Y cells [4]; 500 μM,84%
same,WST-1 activity compared to untreated cells,SH-SY5Y cells [4]; all concentrations except 500 μM,~100%
